Consider 3 compounds from paper PMC7993394 (Journal of Enzyme Inhibition and Medicinal Chemistry, 2021).

T1 sequence (Q63XZ4 1-161 limits assumed): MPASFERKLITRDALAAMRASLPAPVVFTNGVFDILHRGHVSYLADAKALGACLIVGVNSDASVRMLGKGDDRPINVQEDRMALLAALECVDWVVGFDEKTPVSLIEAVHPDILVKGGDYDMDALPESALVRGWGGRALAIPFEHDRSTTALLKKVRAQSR

The test concerns the target T1, BpHldC (Burkholderia pseudomallei, UniProt Q63XZ4).
T1 construct: gene BPSL0395
Put plainly: biochemical.
For the compound `CCOC(=O)c1sc(NC(=O)CSc2nnc(Cc3ccccc3)o2)c(C#N)c1C` [compound 7929959, ethyl 5-({[(5-benzyl-1,3,4-oxadiazol-2-yl)thio]acetyl}amino)-4-cyano-3-methyl-2-thiophenecarboxylate], 10.9 µM corresponded to half-maximal inhibition (IC50). As for `CCOC(=O)c1sc(NC(=O)CSc2nnc(-c3ccc(Cl)cc3)o2)c(C#N)c1C` [compound 7933420, ethyl 5-[({[5–(4-chlorophenyl)-1,3,4-oxadiazol-2-yl]thio}acetyl)amino]-4-cyano-3-methyl-2-thiophene carboxylate], the figure is 17.5 µM; as for `CCOC(=O)c1sc(NC(=O)CSc2nnc(-c3ccccc3OCC)o2)c(C#N)c1C` [compound 7991890, ethyl 4-cyano-5-[({[5–(2-ethoxyphenyl)-1,3,4-oxadiazol-2-yl]thio}acetyl)amino]-3-methyl-2-thiophenecarboxylate], 47.1 µM.
